In brackets after ≈: the same amount, converted by molar mass.
Tests used:
Assay type in all cases: functional
[1] = tested on: MCF7; experiment: Cytotoxicity against Homo sapiens (human) MCF7 cells after 72 hr by MTT assay; settings: MCF7, 72 h, read-out: ED50 (the source's name)
[2] = tested on: B16-F10; experiment: Cytotoxicity against Homo sapiens (human) B16F10 cells after 72 hr by MTT assay; settings: Mus musculus, B16-F10, 72 h; read-out: ED50 (the source's name)
[3] = tested on: L132; experiment: Cytotoxicity against Homo sapiens (human) L-132 cells after 72 hr by MTT assay; settings: L132, 72 h, read-out: ED50 (the source's name)
[4] = tested on: KB; experiment: Cytotoxicity against Homo sapiens (human) KB cells after 72 hr by MTT assay; settings: read-out: ED50 (the source's name)
[5] = tested on: MIA PaCa-2; experiment: Cytotoxicity against Homo sapiens (human) MIAPaCa2 cells after 72 hr by MTT assay; settings: MIA PaCa-2, 72 h, read-out: ED50 (the source's name)
[6] = tested on: HuTu80; experiment: Cytotoxicity against Homo sapiens (human) HuTu 80 cells after 72 hr by MTT assay; settings: HuTu80, 72 h, read-out: ED50 (the source's name)
[7] = tested on: MOLT-4; experiment: Cytotoxicity against Homo sapiens (human) MOLT4 cells after 72 hr by MTT assay; settings: MOLT-4, 72 h, read-out: ED50 (the source's name)

Structure (SMILES) | EC50 [1] [µg/mL] | EC50 [2] [µg/mL] | EC50 [3] [µg/mL] | EC50 [4] [µg/mL] | EC50 [5] [µg/mL] | EC50 [6] [µg/mL] | EC50 [7] [µg/mL]
O=C1/C(=C\c2ccccc2)c2ccccc2N1c1c(Cl)cccc1Cl | 10 (≈ 27.3 µM) | 9 (≈ 24.6 µM) | > 100 | 10 (≈ 27.3 µM) | > 100 | 8 (≈ 21.8 µM) | 7 (≈ 19.1 µM)
O=C1/C(=C\c2ccccc2Cl)c2ccccc2N1c1c(Cl)cccc1Cl | 9 (≈ 22.5 µM) | 39 (≈ 97.3 µM) | > 100 | 5 (≈ 12.5 µM) | > 100 | > 100 | 7 (≈ 17.5 µM)
O=C1/C(=C\c2ccccc2[N+](=O)[O-])c2ccccc2N1c1c(Cl)cccc1Cl |  | > 100 | 10 (≈ 24.3 µM) | 1 (≈ 2.43 µM) | 5 (≈ 12.2 µM) | 10 (≈ 24.3 µM) | 6 (≈ 14.6 µM)
COc1ccc(/C=C2\C(=O)N(c3c(Cl)cccc3Cl)c3ccccc32)cc1OC | 10 (≈ 23.5 µM) | > 100 | > 100 | 10 (≈ 23.5 µM) | 5 (≈ 11.7 µM) | < 1 | 
O=C1/C(=C\c2ccc(Cl)cc2)c2ccccc2N1c1c(Cl)cccc1Cl | 5 (≈ 12.5 µM) | > 100 | 9 (≈ 22.5 µM) | 2 (≈ 4.99 µM) | 5 (≈ 12.5 µM) | 6 (≈ 15 µM) | 
COc1ccc(/C=C2\C(=O)N(c3c(Cl)cccc3Cl)c3ccccc32)cc1 | > 100 | > 100 | > 100 | > 100 | > 100 | > 100 | 
CN(C)c1ccc(/C=C2\C(=O)N(c3c(Cl)cccc3Cl)c3ccccc32)cc1 | > 100 | > 100 | > 100 | 15 (≈ 36.6 µM) | > 100 | < 1 | 
O=C1/C(=C\c2cccc(Cl)c2)c2ccccc2N1c1c(Cl)cccc1Cl |  | 8 (≈ 20 µM) | 16 (≈ 39.9 µM) | 2 (≈ 4.99 µM) | 5 (≈ 12.5 µM) | 7 (≈ 17.5 µM) | 6 (≈ 15 µM)
O=C1/C(=C\c2cccc(Br)c2)c2ccccc2N1c1c(Cl)cccc1Cl | 5 (≈ 11.2 µM) | 8 (≈ 18 µM) | 19 (≈ 42.7 µM) | 2 (≈ 4.49 µM) | 5 (≈ 11.2 µM) | 7 (≈ 15.7 µM) | 7 (≈ 15.7 µM)
O=C1/C(=C\c2cccc(Oc3ccccc3)c2)c2ccccc2N1c1c(Cl)cccc1Cl | 100 (≈ 218 µM) | > 100 | 24 (≈ 52.4 µM) | 5 (≈ 10.9 µM) | > 100 | 10 (≈ 21.8 µM) | 6 (≈ 13.1 µM)
O=C1/C(=C\c2c(Cl)cccc2Cl)c2ccccc2N1c1c(Cl)cccc1Cl | > 100 | > 100 | > 100 | 50 (≈ 115 µM) | > 100 | 100 (≈ 230 µM) | 
O=C1/C(=C\c2cc3ccccc3nc2Cl)c2ccccc2N1c1c(Cl)cccc1Cl | > 100 |  |  | 10 (≈ 22.1 µM) | 5 (≈ 11.1 µM) |  | 
Cc1ccc2nc(Cl)c(/C=C3\C(=O)N(c4c(Cl)cccc4Cl)c4ccccc43)cc2c1 | > 100 |  |  | 100 (≈ 215 µM) |  |  | 
Cc1ccc2nc(Cl)c(/C=C3\C(=O)N(c4c(Cl)cccc4Cl)c4ccccc43)cc2c1C | > 100 | > 100 | 98 (≈ 204 µM) | 10 (≈ 20.8 µM) |  | < 1 | 
O=C1/C(=C\c2ccco2)c2ccccc2N1c1c(Cl)cccc1Cl | > 100 | > 100 | > 100 | 5 (≈ 14 µM) | 10 (≈ 28.1 µM) | 18 (≈ 50.5 µM) | 
O=C1/C(=C\c2ccc(O)cc2)c2ccccc2N1c1c(Cl)cccc1Cl | 20 (≈ 52.3 µM) | 33 (≈ 86.3 µM) | 30 (≈ 78.5 µM) | 2 (≈ 5.23 µM) | 2 (≈ 5.23 µM) | 25 (≈ 65.4 µM) | 
O=C1/C(=C\c2ccc(F)cc2)c2ccccc2N1c1c(Cl)cccc1Cl | 9 (≈ 23.4 µM) | 38 (≈ 98.9 µM) | 13 (≈ 33.8 µM) | 5 (≈ 13 µM) | 5 (≈ 13 µM) | 8 (≈ 20.8 µM) | 
O=C1/C(=C\c2cccc3ccccc23)c2ccccc2N1c1c(Cl)cccc1Cl | > 100 | > 100 | > 100 | > 100 | > 100 | 10 (≈ 24 µM) | 
O=C1Cc2ccccc2N1c1c(Cl)cccc1Cl | > 100 | > 100 | > 100 | 100 (≈ 360 µM) | > 100 | > 100 | 
